In one assay the target is T1, Human FXIa (Homo sapiens, UniProt P03951).
T1 construct: Human FXIa (Enzyme Research Laboratories) was incubated; purchased Enzyme Research Laboratories
Description: FXIa inhibitory activity in vitro (fluorogenic substrate Z-Gly-Pro-Arg-AFC), selectivity. The format is biochemical. The conditions noted are these: 25° C. Here is the method:
Determination of the % Inhibition for FXIa
Human FXIa (Enzyme Research Laboratories) was incubated at 25° C. with the fluorogenic substrate Z-Gly-Pro-Arg-AFC and various concentrations of the test compound. Residual enzyme activity (initial rate of reaction) was determined by measuring the change in fluorescence at 410 nm and the IC50 value for the test compound was determined.

For another assay, the target named is T2, Human Factor XIIa (Homo sapiens, UniProt P00748).
T2 construct: purchased Enzyme Research Laboratories
T2 sequence (P00748 373-615 limits assumed): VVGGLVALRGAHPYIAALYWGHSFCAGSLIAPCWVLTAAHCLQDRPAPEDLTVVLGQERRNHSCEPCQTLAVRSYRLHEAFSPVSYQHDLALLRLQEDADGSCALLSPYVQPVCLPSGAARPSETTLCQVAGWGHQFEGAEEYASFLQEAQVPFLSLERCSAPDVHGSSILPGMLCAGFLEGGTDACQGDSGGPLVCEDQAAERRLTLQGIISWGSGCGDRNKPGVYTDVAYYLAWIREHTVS
As to the kind of experiment: Factor XIIa inhibitory activity in vitro (fluorogenic substrate H-DPro-Phe-Arg-AFC). The format is biochemical. The conditions noted are these: 25° C., class symbols, read-out: Human FXIIa IC50. A digest of the protocol: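 Enzyme incubated at 25° C with fluorogenic substrate H-DPro-Phe-Arg-AFC and a range of compound concentrations. Residual activity taken as initial reaction rate from […], giving IC50.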

Setting [1] is: numeric bound printed instead of category.

From US20220298138A1, “ENZYME INHIBITORS” (KALVISTA PHARMACEUTICALS LIMITED, priority 2019, published 2022) come the findings set out here.

The term IC50 denotes the concentration that inhibits the measured activity by half.

T1 sequence (P03951 388-625 limits assumed): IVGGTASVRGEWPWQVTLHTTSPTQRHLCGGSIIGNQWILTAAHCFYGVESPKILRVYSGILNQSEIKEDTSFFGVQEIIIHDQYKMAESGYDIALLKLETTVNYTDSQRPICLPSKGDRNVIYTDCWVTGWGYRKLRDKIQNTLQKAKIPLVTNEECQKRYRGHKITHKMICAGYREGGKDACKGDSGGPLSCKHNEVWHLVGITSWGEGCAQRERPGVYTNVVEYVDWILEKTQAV
T1 sequence (P03951 19-387 partner limits assumed): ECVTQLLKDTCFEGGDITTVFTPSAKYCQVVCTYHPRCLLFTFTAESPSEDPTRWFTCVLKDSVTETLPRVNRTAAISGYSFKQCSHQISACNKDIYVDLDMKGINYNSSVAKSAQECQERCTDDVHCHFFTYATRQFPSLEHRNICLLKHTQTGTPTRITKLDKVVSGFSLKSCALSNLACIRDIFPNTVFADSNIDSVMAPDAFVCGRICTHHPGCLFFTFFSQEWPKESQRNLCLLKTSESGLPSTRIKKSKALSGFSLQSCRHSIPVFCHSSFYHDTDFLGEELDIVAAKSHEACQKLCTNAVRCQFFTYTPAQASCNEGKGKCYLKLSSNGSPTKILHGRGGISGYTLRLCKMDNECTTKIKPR

For the molecule `C[C@@H]1CCC[C@H](C)N1CC(=O)N1C[C@H](c2ccccc2)C[C@H]1C(=O)NCc1ccc2c(N)nccc2c1` [Example 43.02], the IC50 fell in the range of 10 to 40 µM against Human FXIa (category scale) and 0.28 to 1 µM at Human Factor XIIa.
`Nc1nccc2cc(CNC(=O)[C@@H]3C[C@@H](c4ccccc4)CN3C(=O)[C@H](N)CCc3ccccc3)ccc12` [Example 43.03]: the concentration for half-maximal inhibition (IC50) at Human FXIa (category scale) was 10 to 40 µM; at Human Factor XIIa it was 0.28 to 1 µM.
The like results for `CC(C)(O)C(=O)N1C[C@H](c2ccccc2)C[C@H]1C(=O)NCc1ccc2c(N)nccc2c1` [Example 43.04] were, in that order, 10 to 40 µM and 10 to 40 µM.
The corresponding values for `Nc1nccc2cc(CNC(=O)[C@@H]3C[C@@H](c4ccccc4)CN3CC3CCNCC3)ccc12` [Example 43.05] are greater than 40 µM and 10 to 40 µM.
The corresponding values for `Nc1nccc2cc(CNC(=O)[C@@H]3C[C@@H](c4ccccc4)CN3C(=O)[C@@H]3CCCN3)ccc12` [Example 43.06] are 10 to 40 µM and 1 to 3 µM.
As for `CNC(C)(C)C(=O)N1C[C@H](c2ccccc2)C[C@H]1C(=O)NCc1ccc2c(N)nccc2c1` [Example 43.07], the IC50 against Human FXIa (category scale) fell in the range of 10 to 40 µM; at Human Factor XIIa it was 3 to 10 µM.
The like results for `C[C@H](NC(=O)[C@H]1C[C@@H](c2ccccc2)CN1)C(=O)NCc1ccc2c(N)nccc2c1` [Example 45.01] were, in that order, 3 to 10 µM and 0.28 to 1 µM.
The like results for `C[C@H](NC(=O)[C@@H]1C=C(c2ccccc2)CN1)C(=O)NCc1ccc2c(N)nccc2c1` [Example 45.02] were, in that order, 3 to 10 µM and 3 to 10 µM.
The corresponding values for `C[C@H](NC(=O)[C@H]1C[C@H](c2ccccc2)CN1)C(=O)NCc1ccc2c(N)nccc2c1` [Example 45.03] are 3 to 10 µM and 1 to 3 µM.
As for `C[C@H](NC(=O)[C@H]1Cc2ccccc2CN1)C(=O)NCc1ccc2c(N)nccc2c1` [Example 45.04], the IC50 against Human FXIa (category scale) lay within 3 to 10 µM; on Human Factor XIIa, 10 to 40 µM.
The like results for `C[C@H](NC(=O)[C@@H]1NCc2ccccc21)C(=O)NCc1ccc2c(N)nccc2c1` [Example 45.05] were, in that order, greater than 40 µM and 10 to 40 µM.
The like results for `Nc1nccc2cc(CNC(=O)C3(NC(=O)[C@H](N)CCc4ccccc4)CC3)ccc12` [Example 54.01] were, in that order, greater than 40 µM and 0.28 to 1 µM.
The like results for `Nc1nccc2cc(CNC(=O)C3(NC(=O)[C@H](N)CCc4ccccc4)CCC3)ccc12` [Example 54.02] were, in that order, 10 to 40 µM and 1 to 3 µM.
As for `Nc1nccc2cc(CNC(=O)C3(NC(=O)[C@H](N)CCc4ccccc4)CCOCC3)ccc12` [Example 54.03], the concentration for half-maximal inhibition (IC50) is greater than 40 µM at Human FXIa (category scale) and 3 to 10 µM on Human Factor XIIa.
With `CC(C)N[C@H](CCc1ccccc1)C(=O)N(C)[C@@H](C)C(=O)NCc1ccc2c(N)nccc2c1` [Example 65.01], the IC50 at Human FXIa (category scale) lay within 3 to 10 µM; on Human Factor XIIa, 0.28 to 1 µM.
`C[C@@H](C(=O)NCc1ccc2c(N)nccc2c1)N(C)C(=O)[C@H](N)CCc1ccccc1` [Example 65.02]: the results for the IC50 against Human FXIa (category scale) and on Human Factor XIIa were greater than 40 µM and 1 to 3 µM, respectively.
`N=C(N)c1ccc(CNC(=O)[C@H](Cc2cccc3ccccc23)NC(=O)[C@H]2CCCN2)cc1` [Example 71.01]: the IC50 on Human FXIa (setting [1]) was greater than 10 µM; at Human Factor XIIa, 0.1 to 0.279 µM.
The corresponding values for `N=C(N)c1ccc(CNC(=O)[C@H](Cc2cccc3ccccc23)NC(=O)c2ccccn2)cc1` [Example 71.02] are greater than 10 µM and 1 to 3 µM.
For `CCC(C)[C@@H](N)C(=O)N[C@H](CC1CCCC2CCCCC21)C(=O)NCc1ccc(C(=N)N)s1` (stereo partly drawn) [Example 71.03], the IC50 at Human FXIa (category scale) and at Human Factor XIIa was 1 to 3 µM each time.
On to `CC(C)[C@H](N)C(=O)N[C@H](CC1CCCC2CCCCC21)C(=O)NCc1ccc(C(=N)N)s1` (stereo partly drawn) [Example 71.04], for which the IC50 is 3 to 10 µM against Human FXIa (category scale) and 1 to 3 µM on Human Factor XIIa.
The like results for `N=C(N)c1ccc(CNC(=O)[C@H](Cc2ccccc2)NC(=O)[C@@H](CC2CCCCC2)NCC(=O)O)cc1` [Example 71.05] were, in that order, 0.3 to 1 µM and 3 to 10 µM.
